{"source": "patent US20230149374A1", "about": "“METHODS AND COMPOSITIONS FOR TREATING ATHEROSCLEROSIS” (Sanford Burnham Prebys Medical Discovery Institute, priority 2021, published 2023)", "type_in_all_cases": "in vivo, mouse", "key": {"ApoE-deficient mice [1]": {"test_system": "ApoE-deficient mice", "test": "Quantitative PCR of transcript levels in the abdominal aorta", "conditions": "30 mg/kg/day, 25 weeks, vs control", "excerpt": "(§1) Four cohorts of mice were used in these studies (FIGS. 8A and 9A). Cohorts 1 and 2 were devoted to the in vivo and ex vivo characterization of TNAP-associated plaque calcification. 6-week-old ApoE-deficient male mice were received at the animal facility and placed in conventional cages with 5 mice per cage. Mice were maintained on a 12-hrs light-dark cycle (7:00 am-7:00 pm) and were supplied with food and water ad libitum. From 10 weeks of age, they were fed ad libitum with a high fat diet (HFD, D12108C, Research Diets, New Brunswick, USA) containing 40% fat (kcal) and 1.25% cholesterol (weight). In cohort 1, 8 mice were sacrificed every 2 weeks between weeks 17 to 31, for histological and molecular analyses. Total body weight was measured weekly after starting the HFD. The sacrifice was done after anesthesia with isoflurane and intracardiac blood puncture by CO2 inhalation. Tissues were harvested as described below. The abdominal aorta was used for quantitative polymerase chain reaction (PCR) analyses. Mice from cohort 2 were used to analyze aorta calcification with ^18F—NaF μPET and μCT and to compare the in vivo data with the ex vivo results obtained in cohort 1. Animals were transferred from the animal facility to the Cermep imaging platform. Cohorts 3 and 4 were used to determine in vivo and ex vivo the impact of TNAP inhibition on the vasculature, liver, bones, and kidneys. According to the results obtained in cohorts 1 and 2, TNAP inhibitor SBI-425 (30 mg/kg/day, formulated as a food admixture in the HFD) was administered in a preventive manner from 10 weeks of age. Treatment was stopped at 25 weeks or 31 weeks of age. Plaque calcification was analyzed at 25 weeks, and possible side effects of TNAP inhibition were explored in mice aged 31 weeks. Mice in cohort 3 (2 groups of 13 mice) were used for ex vivo analysis, and mice in cohort 4 (2 groups of 12 mice) for in vivo imaging and ex vivo analyses.\nMouse tissues: total RNAs were extracted from grinded abdominal aorta with the NucleoSpin RNA II kit (Macherey-Nagel) following the manufacturers' protocol. The quantity and quality of RNA were determined using a NanoDrop. RNA (1 μg) was retro-transcribed into cDNA with Superscript II reverse transcriptase (Life Technologies). PCR analysis was conducted using SYBR green Supermix (Biorad) on the iCycler Real-Time Detection system (Biorad). Fold change in mRNA expression was calculated using the 2^−Δcq method by the CFX Manager software (Biorad). Data were normalized by 3 housekeeping genes (HPRT, Actin and Rpl13a) levels."}, "ApoE-deficient mice [2]": {"test_system": "ApoE-deficient mice", "test": "Tolerability: mortality and body weight", "conditions": "30 mg/kg/day, treatment up to 21 weeks", "excerpt": "as §1, with “Cohorts 3 and 4 were used to determine in vivo and ex vivo the impact of TNAP inhibition on the vasculature, liver, bones, and kidneys. According to the results obtained in cohorts 1 and 2, TNAP inhibitor SBI-425 (30 mg/kg/day, formulated as a food admixture in the HFD) was administered in a preventive manner from 10 weeks of age. Treatment was stopped at 25 weeks or 31 weeks of age.” left out, “Mice in cohort 3 (2 groups of 13 mice) were used for ex vivo analysis, and mice in cohort 4 (2 groups of 12 mice) for in vivo imaging and ex vivo analyses.” left out"}, "ApoE-deficient mice [3]": {"test_system": "ApoE-deficient mice", "test": "NMR metabolomics of liver and kidney extracts", "conditions": "30 mg/kg/day, vs control", "excerpt": "as §1, with “According to the results obtained in cohorts 1 and 2, TNAP inhibitor SBI-425 (30 mg/kg/day, formulated as a food admixture in the HFD) was administered in a preventive manner from 10 weeks of age. Treatment was stopped at 25 weeks or 31 weeks of age.” left out, “Mice in cohort 3 (2 groups of 13 mice) were used for ex vivo analysis, and mice in cohort 4 (2 groups of 12 mice) for in vivo imaging and ex vivo analyses.” left out\nLiver and kidney extraction and NMR measurement: The frozen tissues were weighed and then extracted using the methanol-chloroform-water system [2:2:1.425 (v/v/v)]. […] Deuterated phosphate buffer at pH=7.4 (200 mM) was added to the dried aqueous extract with sodium 2,2,3,3-tetradeutero-3-trimethylsilylpropionate (TSP) (Sigma-Aldrich) as internal chemical shift and quantification reference. ^1H NMR spectra were recorded at 298 K on a Bruker Avance spectrometer 500 equipped with a 5-mm TCI cryoprobe. […]"}}, "note": "Entries after “also recorded” stand apart in the source; their conditions may differ."}
{"smiles": "COc1ccc(Cl)cc1S(=O)(=O)Nc1cncc(C(N)=O)c1", "note": "[SBI-425]", "values": [{"measurement": "Acan transcript level (chondrocyte marker), abdominal aorta", "setting": "ApoE-deficient mice [1]", "value": "not accompanied by reduced levels"}, {"measurement": "Alpl transcript level (chondrocyte marker), abdominal aorta", "setting": "ApoE-deficient mice [1]", "value": "not accompanied by reduced levels"}, {"measurement": "Cd68 transcript level (inflammatory marker), abdominal aorta", "setting": "ApoE-deficient mice [1]", "value": "significantly decreased"}, {"measurement": "Il6 transcript level (inflammatory marker), abdominal aorta", "setting": "ApoE-deficient mice [1]", "value": "significantly decreased"}, {"measurement": "Il8 transcript level (inflammatory marker), abdominal aorta", "setting": "ApoE-deficient mice [1]", "value": "significantly decreased"}, {"measurement": "Opn transcript level (inflammatory marker), abdominal aorta", "setting": "ApoE-deficient mice [1]", "value": "significantly decreased"}, {"measurement": "Rankl transcript level (inflammatory marker), abdominal aorta", "setting": "ApoE-deficient mice [1]", "value": "significantly decreased"}, {"measurement": "Runx2 transcript level (chondrocyte marker), abdominal aorta", "setting": "ApoE-deficient mice [1]", "value": "not accompanied by reduced levels"}, {"measurement": "Sox9 transcript level (chondrocyte marker), abdominal aorta", "setting": "ApoE-deficient mice [1]", "value": "not accompanied by reduced levels"}, {"measurement": "body weight", "setting": "ApoE-deficient mice [2]", "value": "no effect; also recorded: did not significantly change"}, {"measurement": "mortality", "setting": "ApoE-deficient mice [2]", "value": "no effect"}, {"measurement": "kidney phosphocholine levels", "setting": "ApoE-deficient mice [3]; 25 weeks", "value": "increased"}, {"measurement": "liver phosphocholine levels", "setting": "ApoE-deficient mice [3]; 25 weeks", "value": "decreased; also recorded: variations close to significance"}, {"measurement": "liver or kidney metabolism (metabolomics, PLS-DA)", "setting": "ApoE-deficient mice [3]", "value": "did not evidence a significant impact; also recorded: did not significantly change"}]}
